Experimental data as given in article PMC13703928, “Substrate‐Dependent Crosslinking by the Cytochrome P450 From Aminopyruvatide Biosynthesis” (Angewandte Chemie (International Ed. in English), 2026).
Several values for one entry are separate records, joined by “and”; a condition that tells them apart may be missing. Identical values can stand only once. Entries after “also recorded” stand apart in the source; their conditions may differ.

Key:
[1] = test system: proteases (trypsin, chymotrypsin, papain, cathepsin B, cathepsin L, ACE, M^pro); format: biochemical
papain = biological target: T1, papain (Carica papaya, UniProt P00784); test: biochemical; conditions: 200 pM enzyme, 10 µM Z-FR-AFC; for IC50: 50 mM sodium phosphate pH 7, 1 mM EDTA, 2 mM DTT, 30 °C, 15 min preincubation at room temperature, fluorescence, meaning of ± and n not given, read-out: IC50, inhibition of papain; for Inhibition of papain at 25 µM (in words): pH 7, 30 °C
T1 construct: purchased Sigma P4762-25MG
T1 sequence (P00784 134-345): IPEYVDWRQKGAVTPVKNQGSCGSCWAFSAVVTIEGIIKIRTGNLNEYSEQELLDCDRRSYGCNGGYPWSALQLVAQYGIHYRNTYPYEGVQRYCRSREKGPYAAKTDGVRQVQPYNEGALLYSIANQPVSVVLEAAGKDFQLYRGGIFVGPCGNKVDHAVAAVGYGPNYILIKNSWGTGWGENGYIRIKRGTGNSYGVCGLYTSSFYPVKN

chymotrypsin = format: biochemical; conditions: 1 nM enzyme, 10 µM Suc-AAPF-AMC, Tris HCl pH 8, 30 °C
trypsin = format: biochemical; conditions: 500 pM enzyme, 10 µM Boc-QAR-AMC, Tris HCl pH 8, 30 °C
cathepsin L = biological target: T2, cathepsin L (Homo sapiens, UniProt P07711); test: biochemical; conditions: 200 pM enzyme, 10 µM Z-FR-AFC; for Inhibition of cathepsin L at 25 µM (in words): pH 5.5, 30 °C
T2 construct: purchased Athens research and technology 16-12-030112

cathepsin B = biological target: T3, cathepsin B (Homo sapiens, UniProt P07858); test: biochemical; conditions: 192.4 pM enzyme, 20 µM Z-RR-4MBNA; for Inhibition of cathepsin B at 25 µM (in words): pH 6.0, 30 °C
T3 construct: purchased Athens research and technology 16-12-030102

[2] = test system: main protease from SARS CoV‐2 (M^pro); format: biochemical
ApyO [3] = format: biochemical, Burkholderia thailandensis E264; conditions: pH 7.5
ApyO [4] = format: biochemical, Burkholderia thailandensis E264; conditions: pH 7.5; remark: listed apart in the source
[5] = biological target: T4, angiotensin I‐converting enzyme (ACE) (Oryctolagus cuniculus, UniProt P12822); format: biochemical; conditions: 0.4 mU/mL enzyme, 10 µM Abz-FRK(Dnp)-P-OH, pH 7.5, 37 °C
T4 construct: purchased Sigma A6778
T4 sequence (P12822 34-1310): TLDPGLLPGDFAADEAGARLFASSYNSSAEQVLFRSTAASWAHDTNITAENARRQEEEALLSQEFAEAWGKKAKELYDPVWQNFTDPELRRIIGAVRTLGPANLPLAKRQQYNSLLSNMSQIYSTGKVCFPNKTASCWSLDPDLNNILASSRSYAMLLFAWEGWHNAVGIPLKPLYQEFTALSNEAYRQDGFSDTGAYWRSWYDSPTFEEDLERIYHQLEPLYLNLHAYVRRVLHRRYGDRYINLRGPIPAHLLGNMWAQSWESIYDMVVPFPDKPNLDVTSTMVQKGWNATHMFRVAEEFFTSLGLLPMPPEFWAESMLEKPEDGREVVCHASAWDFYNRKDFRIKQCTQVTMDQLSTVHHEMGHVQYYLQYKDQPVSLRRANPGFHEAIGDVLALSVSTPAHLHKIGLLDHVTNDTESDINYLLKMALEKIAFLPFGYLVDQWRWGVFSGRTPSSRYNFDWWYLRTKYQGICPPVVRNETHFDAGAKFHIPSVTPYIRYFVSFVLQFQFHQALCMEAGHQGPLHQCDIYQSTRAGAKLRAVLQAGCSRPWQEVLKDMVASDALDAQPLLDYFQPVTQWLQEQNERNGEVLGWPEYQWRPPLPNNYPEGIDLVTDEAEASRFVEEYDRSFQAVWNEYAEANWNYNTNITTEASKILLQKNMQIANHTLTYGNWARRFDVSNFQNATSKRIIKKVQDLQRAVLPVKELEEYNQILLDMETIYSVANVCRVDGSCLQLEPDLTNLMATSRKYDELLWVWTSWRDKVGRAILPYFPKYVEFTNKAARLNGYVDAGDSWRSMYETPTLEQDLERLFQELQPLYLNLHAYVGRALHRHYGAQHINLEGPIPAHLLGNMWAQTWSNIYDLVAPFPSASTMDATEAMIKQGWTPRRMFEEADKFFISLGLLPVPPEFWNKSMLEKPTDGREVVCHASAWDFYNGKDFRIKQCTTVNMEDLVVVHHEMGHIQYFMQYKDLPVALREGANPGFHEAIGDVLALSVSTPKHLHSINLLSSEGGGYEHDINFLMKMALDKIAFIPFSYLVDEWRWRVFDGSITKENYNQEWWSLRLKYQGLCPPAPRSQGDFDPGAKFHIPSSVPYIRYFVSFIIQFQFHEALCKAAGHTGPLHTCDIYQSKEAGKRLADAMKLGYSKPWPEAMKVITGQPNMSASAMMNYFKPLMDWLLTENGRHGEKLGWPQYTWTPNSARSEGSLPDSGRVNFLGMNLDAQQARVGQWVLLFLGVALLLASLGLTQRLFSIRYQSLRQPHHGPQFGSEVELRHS

T2 sequence (P07711 114-333): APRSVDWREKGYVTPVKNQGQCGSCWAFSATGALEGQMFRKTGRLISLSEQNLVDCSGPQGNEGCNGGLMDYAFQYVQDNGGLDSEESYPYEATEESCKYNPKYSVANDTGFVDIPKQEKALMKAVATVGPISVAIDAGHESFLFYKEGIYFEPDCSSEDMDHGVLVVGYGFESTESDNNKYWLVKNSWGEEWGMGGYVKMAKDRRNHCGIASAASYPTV

| Molecule | Inhibition of papain at 25 µM (in words) (papain) | Inhibition of chymotrypsin at 25 µM (in words) (chymotrypsin) | Inhibition of trypsin at 25 µM (in words) (trypsin) | Inhibition of cathepsin L at 25 µM (in words) (cathepsin L) | Inhibition of cathepsin B at 25 µM (in words) (cathepsin B) | Inhibition of SARS CoV-2 Mpro at 25 µM (in words) [2] | other results |
| --- | --- | --- | --- | --- | --- | --- | --- |
| CC(C)C[C@@H]1NC(=O)[C@@H](NC(=O)CN)Cc2ccc(O)c(c2)-c2cc(ccc2O)C[C@@H](C(=O)N[C@@H](C)C(=O)C(=O)O)NC1=O [desmethylaminopyruvatide A] |  |  |  |  |  |  | Protease inhibition, potency in words ([1]; Cys proteases / select proteases): nanomolar activity against Cys‐proteases; also recorded: subnanomolar inhibitory activity against clinically relevant Cys proteases; Specificity (in words) ([1]; cathepsin L, cathepsin B, papain versus trypsin, chymotrypsin, Mpro): specificity towards the papain family of Cys proteases; IC50 (papain): 0.3 nM; Inhibition of chymotrypsin (in words) (chymotrypsin; test concentration not given): No inhibition; Inhibition of trypsin (in words) (trypsin; test concentration not given): No inhibition; IC50 (cathepsin L; 50 mM sodium acetate pH 5.5, 2.5 mM EDTA, 2.5 mM DTT, 30 °C, 15 min preincubation at room temperature, fluorescence, meaning of ± and n not given, read-out: IC50, inhibition of cathepsin L): 0.6 nM; IC50 (cathepsin B; 100 mM sodium phosphate pH 6.0, 1.33 mM EDTA, 2 mM DTT, 30 °C, 15 min preincubation at room temperature, fluorescence, readings every 60 s for 1 h, meaning of ± and n not given, read-out: IC50, inhibition of cathepsin B): 0.5 nM; Inhibition of SARS CoV-2 Mpro (in words) [2]: No inhibition |
| GYYYD (sidechain bridge or staple) [L7Y isomer-1] | No inhibition was observed | No inhibition was observed | No inhibition was observed | No inhibition was observed | No inhibition was observed | No inhibition was observed |  |
| NCC(=O)N[C@H]1Cc2ccc(O)c(c2)Oc2ccc(cc2)C[C@@H](C(=O)N[C@@H](CC(=O)O)C(=O)O)NC(=O)[C@H](Cc2ccc(O)cc2)NC1=O (single isomer, unassigned) [L7Y isomer-2] |  |  |  |  |  |  | IC50 (papain): 11700 nM |
| fMRMGEGYLYD [ApyAct] |  |  |  |  |  |  | Conversion of substrate by ApyO (ApyO [3]): ~70% |
| fMGEGYLYD |  |  |  |  |  |  | Modification by ApyO (in words) (ApyO [3]): did not result in product formation |
| GWLYD (sidechain bridge or staple) [Y6W] | No inhibition was observed | No inhibition was observed | No inhibition was observed | No inhibition was observed | No inhibition was observed | No inhibition was observed |  |
| N‐terminally acetylated‐GRMGEGYLYD [Ac-ApyAct] |  |  |  |  |  |  | Km (ApyO [4]): 80 ± 7 µM; kcat (ApyO [4]): 1.63 and 1.63 ± 0.04 |
| GYWYD (sidechain bridge or staple) [L7W isomer-2] | No inhibition was observed | No inhibition was observed | No inhibition was observed | No inhibition was observed | No inhibition was observed | No inhibition was observed | Inhibition of ACE at 25 µM (in words) [5]: weak inhibition; Inhibition of ACE at 25 µM ([5]; IC50 not determined): ~40% |
